System: PEPT2
Assay: Electrogenic transport in Xenopus oocytes expressing PEPT2 (two-electrode electrophysiology)
Assay type: cell-based
Conditions: compound at 1 mM, normalized to saturating glycyl-sarcosine (1 mM)
Method: Rat and human PEPT1 and PEPT2 expressing CHO cell lines were prepared as described in PCT Application WO01/20331. Gabapentin-containing dipeptides were evaluated for interaction with the peptide transporters using a radiolabeled substrate uptake assay in a competitive inhibition format, as described in PCT Application WO01/20331. Transport-induced currents were also measured in Xenopus oocytes transfected with rat and human PEPT1 and PEPT2.
Rat and human PEPT1 and PEPT2 transporter cDNAs were subcloned into a modified pGEM plasmid that contains 5′ and 3′ untranslated sequences from the Xenopus β-actin gene. These sequences increase RNA stability and protein expression. Plasmid cDNA was linearized and used as template for in vitro transcription (Epicentre Technologies transcription kit, 4:1 methylated:non-methylated GTP).
Xenopus laevis frogs were anesthetized by immersion in Tricaine ([…] in deionized water) for 15 min. Oocytes were removed and digested in frog ringer solution (90 mM NaCl, 2 mM KCl, 1 mM MgCl2, 10 mM NaHEPES, pH 7.45, no CaCl2) with 1 mg/mL collagenase (Worthington Type 3) for 80-100 min with shaking. […]
Transport currents were measured 2-14 days after injection, using a standard two-electrode electrophysiology set-up (Geneclamp 500 amplifier, Digidata 1320/PCLAMP software and ADInstruments hardware and software were used for signal acquisition). […]

## C[C@H](NC(=O)[C@@H](N)CNC(=O)CC1(CN)CCCCC1)C(=O)O [N-β-(Gabapentinyl)-L-Diaminopropionyl-L-Alanine]
  induced current as % of Imax: 45%

From patent publication US7767649B2, “Amino acid conjugates providing for sustained systemic concentrations of GABA analogues” (XenoPort, Inc., priority 2002, dated 2010)
